How the values were obtained:
[1] = compound: NC(=O)CCCCC1CCSS1 [lipoamide]; assay: thermal stability z-score vs DMSO; higher = more thermally stabilized by treatment; settings: HeLa, lipoamide concentration 100 µM
Procedure: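 Cellular thermal proteome profiling in HeLa cells. Cells were treated with 100 µM lipoamide for 1 h, with or without 1 mM arsenate for a further 1 h, then heated to ten temperatures (37-66.3 °C), and soluble protein was quantified by TMT mass spectrometry relative to 0.1% DMSO controls. The thermal stability score (sum of log2 fold changes minus the abundance score) was transformed to a z-score; mean of n = 3 experiments.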

[2] = compound: O=[As]([O-])(O)O.[K+] [potassium arsenate]; assay: as above; settings: HeLa; arsenate concentration 1 mM
Procedure: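 Cellular thermal proteome profiling in HeLa cells treated with 1 mM arsenate for 1 h (DMSO pretreatment), heated to ten temperatures (37-66.3 °C). Soluble protein was quantified by TMT mass spectrometry relative to DMSO controls; the thermal stability score was transformed to a z-score; mean of n = 3 experiments.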

[3] = arsenate co-treatment: 1 mM arsenate 1 h
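Further: each temperature applied for 3 min, abundance score taken as mean log2 fold change at the two lowest temperatures, z-score obtained by mean subtraction and division by SD.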

Sequence of UniProt P21912 (P21912 whole entry): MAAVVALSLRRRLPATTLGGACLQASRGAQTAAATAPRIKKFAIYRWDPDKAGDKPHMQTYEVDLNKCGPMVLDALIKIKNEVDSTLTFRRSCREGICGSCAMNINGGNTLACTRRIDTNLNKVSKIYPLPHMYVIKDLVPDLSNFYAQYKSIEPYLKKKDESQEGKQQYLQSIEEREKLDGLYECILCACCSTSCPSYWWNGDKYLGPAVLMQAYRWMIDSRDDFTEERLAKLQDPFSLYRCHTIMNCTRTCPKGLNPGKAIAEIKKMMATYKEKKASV
Sequence of UniProt Q99747 (Q99747 whole entry): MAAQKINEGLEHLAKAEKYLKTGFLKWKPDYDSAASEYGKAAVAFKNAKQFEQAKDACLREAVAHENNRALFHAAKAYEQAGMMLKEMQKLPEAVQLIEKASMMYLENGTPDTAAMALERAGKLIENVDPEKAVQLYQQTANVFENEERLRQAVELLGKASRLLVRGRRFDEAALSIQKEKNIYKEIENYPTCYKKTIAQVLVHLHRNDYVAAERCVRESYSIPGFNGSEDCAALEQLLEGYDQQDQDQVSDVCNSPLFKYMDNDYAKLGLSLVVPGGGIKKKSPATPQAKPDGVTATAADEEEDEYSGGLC
Sequence of UniProt Q15650 (Q15650 whole entry): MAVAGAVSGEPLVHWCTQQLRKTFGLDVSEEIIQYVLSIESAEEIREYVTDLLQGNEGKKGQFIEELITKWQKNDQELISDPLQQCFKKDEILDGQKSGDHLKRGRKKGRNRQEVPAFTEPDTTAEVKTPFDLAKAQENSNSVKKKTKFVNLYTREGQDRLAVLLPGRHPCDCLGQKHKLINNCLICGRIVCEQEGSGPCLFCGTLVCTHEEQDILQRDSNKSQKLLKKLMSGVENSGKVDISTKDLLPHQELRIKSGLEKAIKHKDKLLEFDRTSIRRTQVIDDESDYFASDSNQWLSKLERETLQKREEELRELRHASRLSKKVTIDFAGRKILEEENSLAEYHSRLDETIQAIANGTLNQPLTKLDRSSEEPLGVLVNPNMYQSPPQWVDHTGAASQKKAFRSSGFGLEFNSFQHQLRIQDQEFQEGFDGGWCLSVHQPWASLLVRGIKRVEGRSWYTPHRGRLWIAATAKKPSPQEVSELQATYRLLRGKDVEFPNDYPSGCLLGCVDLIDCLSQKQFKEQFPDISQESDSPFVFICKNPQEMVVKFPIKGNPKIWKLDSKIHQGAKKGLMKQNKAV
Sequence of UniProt Q9Y262 (Q9Y262 whole entry): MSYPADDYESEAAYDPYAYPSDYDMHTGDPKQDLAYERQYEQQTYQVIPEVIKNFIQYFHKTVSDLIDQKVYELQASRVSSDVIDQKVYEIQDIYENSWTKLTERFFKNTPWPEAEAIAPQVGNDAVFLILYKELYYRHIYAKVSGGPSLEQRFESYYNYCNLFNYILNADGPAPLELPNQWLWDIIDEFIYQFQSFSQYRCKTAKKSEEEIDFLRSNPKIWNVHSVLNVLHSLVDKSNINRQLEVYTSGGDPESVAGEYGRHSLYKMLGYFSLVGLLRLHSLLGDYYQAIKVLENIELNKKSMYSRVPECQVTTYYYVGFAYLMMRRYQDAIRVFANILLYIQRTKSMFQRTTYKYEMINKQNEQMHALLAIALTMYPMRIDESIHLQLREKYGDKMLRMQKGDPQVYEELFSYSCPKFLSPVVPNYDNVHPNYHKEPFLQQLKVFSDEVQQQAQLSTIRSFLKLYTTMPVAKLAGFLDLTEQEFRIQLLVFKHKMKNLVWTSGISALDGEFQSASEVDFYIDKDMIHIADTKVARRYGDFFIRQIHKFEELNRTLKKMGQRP
Sequence of UniProt Q8NC51 (Q8NC51 whole entry): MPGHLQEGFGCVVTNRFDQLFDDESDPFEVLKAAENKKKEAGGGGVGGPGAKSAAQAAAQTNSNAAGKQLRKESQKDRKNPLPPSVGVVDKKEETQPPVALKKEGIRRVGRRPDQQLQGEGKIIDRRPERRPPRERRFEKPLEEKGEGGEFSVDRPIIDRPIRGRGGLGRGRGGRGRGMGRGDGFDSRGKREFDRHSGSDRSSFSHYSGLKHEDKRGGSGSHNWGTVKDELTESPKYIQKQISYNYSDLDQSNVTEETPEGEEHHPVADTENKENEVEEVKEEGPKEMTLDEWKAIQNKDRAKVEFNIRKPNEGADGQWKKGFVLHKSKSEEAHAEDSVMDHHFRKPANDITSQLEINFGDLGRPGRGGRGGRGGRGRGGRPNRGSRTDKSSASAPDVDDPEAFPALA
Sequence of UniProt P51580 (P51580 whole entry): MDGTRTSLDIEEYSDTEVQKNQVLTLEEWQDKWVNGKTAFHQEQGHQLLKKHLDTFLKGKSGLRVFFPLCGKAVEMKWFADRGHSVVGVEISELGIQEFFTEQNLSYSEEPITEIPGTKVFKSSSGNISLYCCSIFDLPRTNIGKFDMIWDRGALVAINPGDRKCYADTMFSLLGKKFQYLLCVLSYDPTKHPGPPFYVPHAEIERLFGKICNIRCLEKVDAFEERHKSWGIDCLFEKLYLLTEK
Sequence of UniProt A6NED2 (A6NED2 whole entry): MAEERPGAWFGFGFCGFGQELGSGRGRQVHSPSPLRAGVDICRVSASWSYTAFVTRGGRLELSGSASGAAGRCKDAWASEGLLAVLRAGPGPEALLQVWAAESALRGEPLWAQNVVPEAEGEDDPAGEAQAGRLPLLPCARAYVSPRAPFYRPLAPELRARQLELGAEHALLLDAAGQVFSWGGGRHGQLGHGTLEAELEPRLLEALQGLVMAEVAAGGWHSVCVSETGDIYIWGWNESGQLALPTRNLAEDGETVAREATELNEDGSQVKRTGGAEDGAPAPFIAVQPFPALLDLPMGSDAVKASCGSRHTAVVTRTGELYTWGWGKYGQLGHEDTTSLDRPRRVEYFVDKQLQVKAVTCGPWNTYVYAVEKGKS
Sequence of UniProt P49720 (P49720 whole entry): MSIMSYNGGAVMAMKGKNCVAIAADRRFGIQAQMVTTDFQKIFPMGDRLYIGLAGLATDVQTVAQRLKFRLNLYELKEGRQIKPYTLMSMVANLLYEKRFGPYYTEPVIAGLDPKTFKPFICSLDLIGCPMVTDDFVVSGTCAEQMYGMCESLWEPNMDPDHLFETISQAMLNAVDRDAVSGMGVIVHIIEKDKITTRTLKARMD
Sequence of UniProt Q7Z3C6 (Q7Z3C6 whole entry): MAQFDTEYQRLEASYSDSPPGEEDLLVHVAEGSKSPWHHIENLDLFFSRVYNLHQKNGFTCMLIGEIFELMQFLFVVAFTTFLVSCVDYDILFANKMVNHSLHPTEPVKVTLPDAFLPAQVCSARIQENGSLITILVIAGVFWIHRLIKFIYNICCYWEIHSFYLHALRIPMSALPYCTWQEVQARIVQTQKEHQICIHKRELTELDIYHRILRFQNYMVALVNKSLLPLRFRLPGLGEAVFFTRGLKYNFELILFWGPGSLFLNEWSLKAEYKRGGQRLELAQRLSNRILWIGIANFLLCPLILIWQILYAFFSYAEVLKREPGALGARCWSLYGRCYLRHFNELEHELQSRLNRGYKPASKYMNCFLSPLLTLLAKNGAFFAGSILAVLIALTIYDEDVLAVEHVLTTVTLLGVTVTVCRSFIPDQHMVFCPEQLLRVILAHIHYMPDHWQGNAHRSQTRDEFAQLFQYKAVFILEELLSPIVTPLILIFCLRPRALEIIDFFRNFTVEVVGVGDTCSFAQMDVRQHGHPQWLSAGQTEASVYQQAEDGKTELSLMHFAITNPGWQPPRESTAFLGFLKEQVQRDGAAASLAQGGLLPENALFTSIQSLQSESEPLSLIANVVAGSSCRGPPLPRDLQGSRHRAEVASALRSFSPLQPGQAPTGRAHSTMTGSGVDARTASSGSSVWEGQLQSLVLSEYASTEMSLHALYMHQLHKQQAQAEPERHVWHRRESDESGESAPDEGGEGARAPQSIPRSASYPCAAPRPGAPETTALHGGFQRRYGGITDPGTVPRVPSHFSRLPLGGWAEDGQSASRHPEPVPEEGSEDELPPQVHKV
Sequence of UniProt P49427 (P49427 whole entry): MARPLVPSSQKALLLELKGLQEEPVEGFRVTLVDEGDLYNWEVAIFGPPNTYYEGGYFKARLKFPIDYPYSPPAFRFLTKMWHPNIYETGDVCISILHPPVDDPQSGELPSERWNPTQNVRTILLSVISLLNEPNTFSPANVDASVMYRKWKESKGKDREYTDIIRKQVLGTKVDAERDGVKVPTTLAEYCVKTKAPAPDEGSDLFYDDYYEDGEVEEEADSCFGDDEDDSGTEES
Sequence of UniProt P25789 (P25789 whole entry): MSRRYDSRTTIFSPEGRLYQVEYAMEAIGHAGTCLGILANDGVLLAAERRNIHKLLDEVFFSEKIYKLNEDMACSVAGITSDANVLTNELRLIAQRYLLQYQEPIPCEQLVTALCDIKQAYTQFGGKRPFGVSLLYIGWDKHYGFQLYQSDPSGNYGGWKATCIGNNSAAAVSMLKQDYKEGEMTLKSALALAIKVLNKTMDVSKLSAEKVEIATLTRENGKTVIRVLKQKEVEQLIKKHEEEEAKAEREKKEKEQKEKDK
Sequence of UniProt Q15834 (Q15834 whole entry): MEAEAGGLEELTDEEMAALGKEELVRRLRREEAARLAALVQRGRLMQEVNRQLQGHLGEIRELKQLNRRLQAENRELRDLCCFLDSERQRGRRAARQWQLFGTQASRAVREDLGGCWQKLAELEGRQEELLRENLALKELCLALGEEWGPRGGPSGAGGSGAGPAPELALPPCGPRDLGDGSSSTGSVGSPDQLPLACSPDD
Sequence of UniProt P49006 (P49006 whole entry): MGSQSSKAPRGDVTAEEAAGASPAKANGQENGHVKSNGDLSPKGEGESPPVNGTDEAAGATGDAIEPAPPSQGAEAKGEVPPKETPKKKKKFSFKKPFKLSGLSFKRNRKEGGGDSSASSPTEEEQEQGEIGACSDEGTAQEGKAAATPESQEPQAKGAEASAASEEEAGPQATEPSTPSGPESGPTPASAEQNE
Sequence of UniProt O00258 (O00258 whole entry): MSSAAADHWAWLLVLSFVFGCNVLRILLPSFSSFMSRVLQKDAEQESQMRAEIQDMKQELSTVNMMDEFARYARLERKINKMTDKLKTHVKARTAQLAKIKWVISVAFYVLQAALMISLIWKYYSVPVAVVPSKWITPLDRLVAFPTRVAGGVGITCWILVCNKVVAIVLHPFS

Target	thermal stability z-score [1, 3]	thermal stability z-score ([1]; arsenate co-treatment: none)	thermal stability z-score [2]
GALNT10 (UniProt Q86SR1)	-0.462	0.0888	0.557
NRF1 (UniProt Q16656)	-0.282	-0.0693	0.311
SDHB (UniProt P21912)	-0.24	-0.16	-0.681
ATG9A (UniProt Q7Z3C6)	-0.389	-0.339	0.359
CAMK2D (UniProt Q13557)	0.111	0.215	-0.0188
NAPG (UniProt Q99747)	-0.212	-0.012	0.0503
RCCD1 (UniProt A6NED2)	0.452	0.179	-0.297
GCAT (UniProt O75600)	-0.752	-1.04	1.38
CUL2 (UniProt Q13617)	0.23	0.0777	-0.256
WRB (UniProt O00258)	-0.618	0.0706	-0.55
PSMA4 (UniProt P25789)	1.29	0.788	0.411
SERBP1 (UniProt Q8NC51)	0.533	0.5	-0.0206
EIF3L (UniProt Q9Y262)	0.23	0.373	-0.297
AMACR (UniProt Q9UHK6)	0.683	-0.138	0.504
EIF6 (UniProt P56537)	-0.689	-0.681	-2.24
MCM5 (UniProt P33992)	-0.676	-0.191	2.47
NDUFS8 (UniProt O00217)	-0.474	-0.512	-0.279
DNAJC16 (UniProt Q9Y2G8)	-0.913	-2.01	0.00733

Target	thermal stability z-score [1, 3]	thermal stability z-score ([1]; arsenate co-treatment: none)	thermal stability z-score [2]
RACK1 (UniProt P63244)	0.56	0.4	-0.92
TRIP4 (UniProt Q15650)	0.243	0.422	-0.932
RPL7A (UniProt P62424)	0.455	0.197	-0.955
TIMMDC1 (UniProt Q9NPL8)	0.185	-0.271	0.538
MRPL10 (UniProt Q7Z7H8)	0.127	0.224	0.0461
BRAF (UniProt P15056)	-0.207	0.176	0.328
RPL31 (UniProt P62899)	-0.223	-0.0856	-0.8
SLC43A2 (UniProt Q8N370)	0.846	1.05	-1.03
CDC34 (UniProt P49427)	-0.142	-0.0805	0.0868
QKI (UniProt Q96PU8)	-0.625	0.069	0.0813
HDLBP (UniProt Q00341)	-0.35	0.231	-0.295
CCDC85B (UniProt Q15834)	0.574	0.223	0.125
TPMT (UniProt P51580)	0.308	0.31	-0.162
PSMB3 (UniProt P49720)	1.04	0.994	0.157
LOC102723897|WASH3P|WASH2P	0.179	-0.15	0.051
MARCKSL1 (UniProt P49006)	0.667	0.788	0.248
RPS17 (UniProt P08708)	0.31	-0.0463	-0.614

From the supplement of paper PMC12463676, “Small-molecule dissolution of stress granules by redox modulation benefits ALS models” (Nature Chemical Biology, 2025)
